Laboratory results from US5646310A, “N-(2-cyanoethyl)-6-fluoroalkyl-2h-1-benzopyran derivatives” (Chugai Seiyaku Kabushiki Kaisha, priority 1993, dated 1997).

These compounds were tested on thoracic aorta (assay: Extracted rat aorta, relaxation of KCl-induced constriction relative to maximum relaxation (Test Example 2)). Settings: relaxation of continuous constriction caused by 30 mM potassium chloride, rat aorta ring, 2 ml organ bath; read-out: 50% inhibitory concentration (EC50) relative to the maximum relaxation effect of the compound.
Assay type: cell-based, male Sprague Dawley rat
Procedure: (§1) A thoracic aorta was extracted from male Sprague Dawley rat (450-600 g) to prepare a ring-formed sample having a width of 2 mm. The resulting sample was suspended at a tension of 2 g in a 2 ml organ bath containing Krebs-Henseleit solution, and a gas composed of 95% oxygen and 5% carbon dioxide was passed therethrough. A constriction reaction of the sample was recorded isometrically by a FD pick-up. After equilibration for 1 to 1.5 hour, 30 mM potassium chloride was added in order to constrict the tissue, and an activity of the test compound for relaxing the continuous constriction caused by potassium chloride was evaluated by determining a 50% inhibitory concentration (EC50) of the compound relative to the maximum relaxation effect of the compound.

EC50 [nM] | SMILES
0.021 | N#CCCNC(=S)C1=CC(CF)(CF)Oc2ccc(C(F)(F)F)cc21 [Compound 3, N-(2-cyanoethyl)-2,2-bisfluoromethyl-6-tri-fluoromethyl-2H-1-benzopyran-4-carbothioamide]
0.019 | N#CCCNC(=S)C1=CC(CF)(CF)Oc2ccc(C(F)(F)C(F)(F)F)cc21 [Compound 4, N-(2-cyanoethyl)-6-pentafluoroethyl-2,2-bis-fluoromethyl-2H-1-benzopyran-4-carbothioamide]
170 | CC1(C)Oc2ccc(C#N)cc2C(N2CCCC2=O)C1O (stereo not shown) [Cromakalim, cromakalim, reference compound]

These compounds were tested on thoracic aorta (assay: Extracted rat aorta, relaxation of KCl-induced constriction (Test Example 1)). Settings: relaxation of continuous constriction caused by 30 mM potassium chloride, rat aorta ring; read-out: 50% inhibitory concentration (IC50).
Assay type: cell-based, male Sprague Dawley rat
Procedure: as §1, with “an” for “a 2 ml”, “(IC50). As comparative compounds, N-(2-cyanoethyl)-2,2-dimethyl-6-nitro-2H-1-benzopyran-4-carbamide (Compound A) disclosed in WO 92/02514 and 6-trifluoromethyl--N-methyl-2,2-dimethyl-2H-1-benzopyran-4-carbothioamide (Compound B) disclosed in WO 92/14439 were used.” for “(EC50) of the compound relative to the maximum relaxation effect of the compound.”

SMILES | IC50 [nM]
CC1(C)C=C(C(=O)NCCC#N)c2cc([N+](=O)[O-])ccc2O1 [Compound A, N-(2-cyanoethyl)-2,2-dimethyl-6-nitro-2H-1-benzopyran-4-carbamide, reference compound] | 2.8
CNC(=S)C1=CC(C)(C)Oc2ccc(C(F)(F)F)cc21 [Compound B, 6-trifluoromethyl--N-methyl-2,2-dimethyl-2H-1-benzopyran-4-carbothioamide, reference compound] | 1.9

Next, values leading:

IC50 [nM] | SMILES
0.24 | CC1(C)C=C(C(=O)NCCC#N)c2cc(C(F)(F)C(F)(F)F)ccc2O1 [Compound 1, N-(2-cyanoethyl)-6-pentafluoroethyl-2,2-dimethyl-2H-1-benzopyran-4-carbamide]
0.88 | CC1(C)C=C(C(=S)NCCC#N)c2cc(C(F)(F)C(F)(F)F)ccc2O1 [Compound 2, N-(2-cyanoethyl)-6-pentafluoroethyl-2,2-dimethyl-2H-1-benzopyran-4-carbothioamide]
